Legend:
P. aeruginosa AR-0257 = experiment: colistin MIC in absence or presence of RMA; assay type: cell-based; details: for fold reduction of colistin MIC: compound at 1 μg/mL, AR-0257
P. aeruginosa AR-0239 = experiment: colistin MIC in absence or presence of RMA; assay type: cell-based; details: for fold reduction of colistin MIC: compound at 1 μg/mL, AR-0239
[1] = test system: 8 different MDR Gram-negative bacteria; experiment: colistin MIC across the panel of strains; assay type: cell-based; details: for Colistin MIC in the presence of compound, strains that contain the mcr genes: compound at 1 μg/mL
mitochondria = details: in vitro and in mice for 6p; cited from earlier work
S. Typhimurium AR-0539 = experiment: colistin MIC in absence or presence of RMA; assay type: cell-based, Salmonella Typhimurium; details: colistin alone; mcr-3
K. pneumoniae AR-0497 = experiment: colistin MIC in absence or presence of RMA; assay type: cell-based; details: colistin alone; mcr-1
S. Typhimurium AR-0635 = experiment: colistin MIC in absence or presence of RMA; assay type: cell-based, Salmonella Typhimurium; details: colistin alone; mcr-4
E. coli AR-0538 = experiment: colistin MIC in absence or presence of RMA; assay type: cell-based; details: colistin alone; mcr-2
A. baumannii AR-0310 = experiment: colistin MIC in absence or presence of RMA; assay type: cell-based; details: colistin alone
E. coli AR-0493 = experiment: colistin MIC in absence or presence of RMA; assay type: cell-based; details: colistin alone; mcr-1

Compound: Clc1cccc(Nc2nc3nonc3nc2Nc2cccc(Cl)c2)c1 [5l]
- fold reduction of colistin MIC (P. aeruginosa AR-0257): 4 folds
- fold reduction of colistin MIC (P. aeruginosa AR-0239): 4 folds
- Colistin MIC in the presence of compound, strains that contain the mcr genes [1]: 1 to 2 µg/mL

Compound: Clc1ccc(Nc2nc3nonc3nc2Nc2ccc(Cl)cc2)cc1 [5m]
- fold reduction of colistin MIC (P. aeruginosa AR-0257): 4 folds
- fold reduction of colistin MIC (P. aeruginosa AR-0239): 4 folds
- Colistin MIC in the presence of compound, strains that contain the mcr genes [1]: 1 to 2 µg/mL

Compound: FC(F)(F)Oc1ccc(Nc2nc3nonc3nc2Nc2ccc(OC(F)(F)F)cc2)cc1 [5p]
- mitochondrial uncoupler activity (mitochondria): poor uncoupler

Compound: Oc1nc2nonc2nc1Nc1ccc(OC(F)(F)F)cc1 [6p]
- mitochondrial uncoupler activity (mitochondria): one of the most potent uncouplers

Compound: Colistin
- Colistin MIC (S. Typhimurium AR-0539): 8 µg/mL
- Colistin MIC (P. aeruginosa AR-0257; colistin alone): 8 µg/mL
- Colistin MIC (K. pneumoniae AR-0497): 8 µg/mL
- Colistin MIC (P. aeruginosa AR-0239; colistin alone): 4 µg/mL
- Colistin MIC (S. Typhimurium AR-0635): 32 µg/mL
- Colistin MIC (E. coli AR-0538): 8 µg/mL
- Colistin MIC, range over all strains ([1]; colistin alone, 8 strains): 4 to 32 µg/mL
- Colistin MIC (A. baumannii AR-0310): 32 µg/mL
- Colistin MIC (E. coli AR-0493): 8 µg/mL

— publication PMC10101151 (Bioorganic & medicinal chemistry letters, 2022)
